# Test system: TNFRp55+/+ mice
# Details: mouse, in vivo
smiles,measurement,value
"N[C@H]1C(O)O[C@H](CO)[C@H](O)[C@@H]1O (stereo partly drawn) [D-Gal, D-galactosamine]",TNFRp55 +/+ dead/group,0/4
